{"source": "patent US12226403B2", "about": "(SPERO THERAPEUTICS, INC., priority 2016, dated 2025)", "key": {"[1]": {"experiment": "PK parameters for oral administration to monkeys", "format": "in vivo", "settings": "cynomolgus monkey, plasma, 100 mg; oral tablets vs previously generated IV data, estimated; read-out: bioavailability of tebipenem", "description": "Each animal received a one week wash out prior to the next dose and each served as its own control. Blood samples were collected into K2EDTA tubes before processing to plasma. Samples were obtained at 15 minutes, 30 minutes, 1 hours, 2 hours, 4 hours, 6 hours, 8 hours, 10 hours, 12 hours, 16 hours, and 24 hours post administration. […] Non-compartmental analysis used to derive pharmacokinetic parameters of the composite time vs. concentration profiles were performed for each dose level using Phoenix Winnonlin v. 6.4. Plasma concentration of tebipenem for each time point was determined by HPLC."}, "[2]": {"experiment": "Previously generated IV data", "settings": "in vivo, 10 mg/kg dose", "description": "Cmax was reduced with the modified release formulation compared to the immediate release (free base and HBr) formulation but AUCall was relatively constant between the formulations. AUCinf could not be calculated due to the variability in the terminal elimination profile. […] Mean residence time was increased in the extended release formulation."}}}
{"smiles": "C[C@@H](O)[C@H]1C(=O)N2C(C(=O)O)=C(SC3CN(C4=NCCS4)C3)[C@H](C)[C@H]12", "note": "[tebipenem]", "values": [{"measurement": "bioavailability", "setting": "[1]", "value": "39 to 50", "unit": "%"}, {"measurement": "AUC", "setting": "[2]", "value": 13100, "unit": "ng·h/mL"}]}
